Test results taken from patent US8394828B2 (Janssen Pharmaceutica, NV, priority 2003, dated 2013).
Like-named read-outs stand apart in the source and are kept apart here.

Legend:
[1] = target: T1, human VR1 (Homo sapiens, UniProt Q8NER1); assay: Human VR1 functional assay (intracellular Ca++, FLIPR, capsaicin challenge); assay type: cell-based
T1 construct: expressed in transfected cells; host or cells: HEK293
Protocol: The functional activity of the test compounds was determined by measuring changes in intracellular calcium concentration using a Ca^++-sensitive fluorescent dye and FLIPR™ technology.
EC50 or IC50 values were determined from dose-response studies.

[2] = target: T1, human VR1; assay: Human VR1 [3H] RTX binding assay; settings: for inhibition at 1 µM: compound at 1 μM; for Ki: hVR1
Protocol: Compounds of the present invention were tested for their ability to inhibit the binding of [^3H] RTX to hVR1 receptors in a [^3H]
HEK293 cells were transfected with human VR1 vanilloid receptors and washed with Hank's Balanced Salt Solution, dissociated with cell dissociation buffer (Sigma), and then centrifuged at 1000×g for 5 min. […] The pelleted membranes were kept in an −80° C. freezer.
Approximately 120 μg protein/ml from membranes were incubated with indicated concentrations of [^3H] RTX in 0.5 ml of the HEPES buffer (pH 7.4) containing 0.25 mg/mL fatty acid-free bovine serum albumin at 37° C. for 60 min. […] The tip of the microcentrifuge tube containing the pellet was cut off. Bound radioactivity was quantified by scintillation counting. Non-specific binding was tested in the presence of 200 nM unlabeled RTX.

[3] = hVR1, capsaicin challenge, read-out: FLIPR functional assay IC50 hVR1
[4] = 3H-RTX binding, read-out: 3H-RTX binding assay Ki hVR1
[5] = FLIPR functional assay IC50 hVR1 60 min, 60 min

T1 sequence (Q8NER1 whole entry): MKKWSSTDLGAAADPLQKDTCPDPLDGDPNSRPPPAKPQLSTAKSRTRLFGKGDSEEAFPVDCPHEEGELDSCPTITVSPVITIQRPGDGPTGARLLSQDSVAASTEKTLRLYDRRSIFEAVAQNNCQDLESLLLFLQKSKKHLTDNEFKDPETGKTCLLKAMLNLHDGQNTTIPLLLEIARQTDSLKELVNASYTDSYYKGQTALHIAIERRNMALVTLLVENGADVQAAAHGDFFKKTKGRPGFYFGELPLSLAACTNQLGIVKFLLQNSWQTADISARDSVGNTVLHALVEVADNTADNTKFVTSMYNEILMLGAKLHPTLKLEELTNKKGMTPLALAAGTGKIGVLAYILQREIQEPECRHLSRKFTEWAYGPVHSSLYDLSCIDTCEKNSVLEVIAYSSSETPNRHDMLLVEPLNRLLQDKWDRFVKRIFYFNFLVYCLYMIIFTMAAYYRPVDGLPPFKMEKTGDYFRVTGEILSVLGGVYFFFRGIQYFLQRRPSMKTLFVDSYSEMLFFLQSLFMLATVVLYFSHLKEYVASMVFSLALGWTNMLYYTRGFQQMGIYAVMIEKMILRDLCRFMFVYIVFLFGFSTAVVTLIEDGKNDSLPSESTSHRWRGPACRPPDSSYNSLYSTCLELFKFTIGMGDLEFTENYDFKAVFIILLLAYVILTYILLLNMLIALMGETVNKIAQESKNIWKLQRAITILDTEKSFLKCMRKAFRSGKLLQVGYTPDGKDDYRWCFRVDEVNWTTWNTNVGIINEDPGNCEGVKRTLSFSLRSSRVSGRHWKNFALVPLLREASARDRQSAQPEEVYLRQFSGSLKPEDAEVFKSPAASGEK

CCCCCN(C)c1ccc(C(=O)Nc2cnc3ccccc3c2)cc1C [3-Methyl-4-(methyl-pentyl-amino)-N-quinolin-3-yl-benzamide]
IC50 [1, 3]: 54 nM
inhibition at 1 µM ([2]; 3H-RTX binding): 107%
Ki [2, 4]: 37.9 nM

CCCCCNc1ccc(C(=O)Nc2cnc3ccccc3c2)cc1C [3-Methyl-4-pentylamino-N-quinolin-3-yl-benzamide]
IC50 [1, 5]: 12 nM
IC50 [1, 3]: 780 nM
inhibition at 1 µM ([2]; 3H-RTX binding): 81%
Ki [2, 4]: 73.5 nM

CCCCCNc1cccc(C(=O)Nc2cnc3ccccc3c2)c1 [3-Pentylamino-N-quinolin-3-yl-benzamide]
IC50 [1, 3]: 2700 nM
inhibition at 1 µM ([2]; 3H-RTX binding): 12%

CN(CCc1ccccc1)c1ccc(CCC(=O)Nc2cnc3ccccc3c2)cc1 [3-[4-(Methyl-phenethyl-amino)-phenyl]-N-quinolin-3-yl-propionamide]
IC50 [1, 3]: 180 nM
inhibition at 1 µM ([2]; 3H-RTX binding): 90%
Ki [2, 4]: 192 nM

CCCCC(C)(C)c1cc(OC)c(CCC(=O)Nc2cnc3ccccc3c2)c(OC)c1 [3-{4-(1,1-Dimethyl-pentyl)-2,6-dimethoxy-phenyl}-N-quinolin-3-yl-propionamide]
IC50 [1, 3]: 1000 nM
Ki ([2]; 3H-RTX binding assay Ki hVR1, 3H-RTX binding): 10.6 nM
inhibition at 1 µM ([2]; 3H-RTX binding): 96%

CCC(C)(C)c1cc(OC)c(CCC(=O)Nc2cnc3ccccc3c2)c(OC)c1 [3-{4-(1,1-Dimethyl-propyl)-2,6-dimethoxy-phenyl}-N-quinolin-3-yl-propionamide]
IC50 [1, 3]: 320 nM
inhibition at 1 µM ([2]; 3H-RTX binding): 93%
Ki [2, 4]: 52 nM

CC(C)(c1ccc(CCC(=O)Nc2cnc3ccccc3c2)cc1)C1CCCCC1 [3-{4-(1-Cyclohexyl-1-methyl-ethyl)-phenyl}-N-quinolin-3-yl-propionamide]
IC50 [1, 3]: 570 nM
Ki [2, 4]: 31.5 nM

CN(Cc1ccccc1)c1ccc(CCC(=O)Nc2cnc3ccccc3c2)cc1 [3-{4-(Benzyl-methyl-amino)-phenyl}-N-quinolin-3-yl-propionamide]
IC50 [1, 3]: 354 nM
Ki [2, 4]: 111 nM

CN(c1ccc(C=CC(=O)Nc2cnc3ccccc3c2)cc1)C1CCCCC1 [3-{4-(Cyclohexyl-methyl-amino)-phenyl}-N-quinolin-3-yl-acrylamide]
IC50 [1, 5]: 400 nM
inhibition at 1 µM ([2]; 3H-RTX binding): 91%
Ki [2, 4]: 131 nM

CN(c1ccc(CCC(=O)Nc2cnc3ccccc3c2)cc1)C1CCCCC1 [3-{4-(Cyclohexyl-methyl-amino)-phenyl}-N-quinolin-3-yl-propionamide]
IC50 [1, 3]: 3900 nM
inhibition at 1 µM ([2]; 3H-RTX binding): 51%
Ki [2, 4]: 1170 nM

CCCN(C)c1ccc(CCC(=O)Nc2cnc3ccccc3c2)cc1 [3-{4-(Methyl-propyl-amino)-phenyl}-N-quinolin-3-yl-propionamide]
IC50 [1, 3]: 500 nM
Ki [2, 4]: 196 nM

CC1CN(c2ccc(C(=O)Nc3cnc4ccccc4c3)cc2)CC(C)O1 (stereo not shown) [4-(2,6-Dimethyl-morpholin-4-yl)-N-quinolin-3-yl-benzamide]
IC50 [1, 3]: 10000 nM
inhibition at 1 µM ([2]; 3H-RTX binding): 18%

CC1CC(C)CN(c2ccc(C(=O)Nc3cnc4ccccc4c3)cc2)C1 (stereo not shown) [4-(3,5-Dimethyl-piperidin-1-yl)-N-quinolin-3-yl-benzamide]
IC50 [1, 3]: 1800 nM
inhibition at 1 µM ([2]; 3H-RTX binding): 91%
Ki [2, 4]: 86.1 nM

O=C(Nc1cnc2ccccc2c1)c1ccc(N2CC3CCCC(C3)C2)cc1 [4-(3-Aza-bicyclo{3.3.1}non-3-yl)-N-quinolin-3-yl-benzamide]
IC50 [1, 5]: 127 nM
IC50 [1, 3]: 170 nM
inhibition at 1 µM ([2]; 3H-RTX binding): 99%
Ki [2, 4]: 5.15 nM

O=C(Nc1cnc2ccccc2c1)c1ccc(N2CCN(C(=O)Cc3ccccc3)CC2)cc1 [4-(4-Phenylacetyl-piperazin-1-yl)-N-quinolin-3-yl-benzamide]
IC50 [1, 3]: 10000 nM
Ki [2, 4]: 100000 nM

CCCC1CCN(c2ccc(C(=O)Nc3cnc4ccccc4c3)cc2)CC1 [4-(4-Propyl-piperidin-1-yl)-N-quinolin-3-yl-benzamide]
IC50 [1, 5]: 170 nM
IC50 [1, 3]: 16000 nM
inhibition at 1 µM ([2]; 3H-RTX binding): 92%
Ki [2, 4]: 103 nM

CC(=O)N(c1ccc(C(=O)Nc2cnc3ccccc3c2)cc1)C1CCCCC1 [4-(Acetyl-cyclohexyl-amino)-N-quinolin-3-yl-benzamide]
IC50 [1, 3]: 10000 nM
inhibition at 1 µM ([2]; 3H-RTX binding): 1%

CN(Cc1ccccc1)c1ccc(C(=O)Nc2cnc3ccccc3c2)cc1 [4-(Benzyl-methyl-amino)-N-quinolin-3-yl-benzamide]
IC50 [1, 5]: 370 nM
IC50 [1, 3]: 2300 nM
inhibition at 1 µM ([2]; 3H-RTX binding): 98%
Ki [2, 4]: 75.3 nM

CN(c1ccc(C(=O)Nc2cnc3ccccc3c2)cc1)C1CCCCCC1 [4-(Cycloheptyl-methyl-amino)-N-quinolin-3-yl-benzamide]
IC50 [1, 3]: 400 nM
inhibition at 1 µM ([2]; 3H-RTX binding): 100%
Ki [2, 4]: 14 nM

CCN(c1ccc(C(=O)Nc2cnc3ccccc3c2)cc1)C1CCCCC1 [4-(Cyclohexyl-ethyl-amino)-N-quinolin-3-yl-benzamide]
IC50 [1, 3]: 300 nM
Ki [2, 4]: 12.6 nM

Cc1cc(C(=O)Nc2cnc3ccccc3c2)ccc1N(C)C1CCCCC1 [4-(Cyclohexyl-methyl-amino)-3-methyl-N-quinolin-3-yl-benzamide]
IC50 [1, 5]: 23 nM
IC50 [1, 3]: 560 nM
Ki [2, 4]: 22 nM

CN(C(=O)c1ccc(N(C)C2CCCCC2)cc1)c1cnc2ccccc2c1 [4-(Cyclohexyl-methyl-amino)-N-methyl-N-quinolin-3-yl-benzamide]
IC50 [1, 3]: 2000 nM
inhibition at 1 µM ([2]; 3H-RTX binding): 12%

CCCN(c1ccc(C(=O)Nc2cnc3ccccc3c2)cc1)C1CCCCC1 [4-(Cyclohexyl-propyl-amino)-N-quinolin-3-yl-benzamide]
IC50 [1, 3]: 10000 nM
Ki [2, 4]: 84.6 nM

Cc1cc(C(=O)Nc2cnc3ccccc3c2)ccc1N(C)CC1CCCCC1 [4-(Cyclohexylmethyl-methyl-amino)-3-methyl-N-quinolin-3-yl-benzamide]
IC50 [1, 3]: 10000 nM
Ki [2, 4]: 68.3 nM

CN(CC1CCCCC1)c1ccc(C(=O)Nc2cnc3ccccc3c2)cc1 [4-(Cyclohexylmethyl-methyl-amino)-N-quinolin-3-yl-benzamide]
IC50 [1, 3]: 1700 nM
inhibition at 1 µM ([2]; 3H-RTX binding): 104%
Ki [2, 4]: 15.7 nM

CN(c1ccc(C(=O)Nc2cnc3ccccc3c2)cc1)C1CCCC1 [4-(Cyclopentyl-methyl-amino)-N-quinolin-3-yl-benzamide]
IC50 [1, 3]: 185 nM
Ki [2, 4]: 27.9 nM

CCCCCC=CCCCN(C)c1ccc(C(=O)Nc2cnc3ccccc3c2)cc1 [4-(Dec-4-enyl-methyl-amino)-N-quinolin-3-yl-benzamide]
IC50 [1, 5]: 66 nM
inhibition at 1 µM ([2]; 3H-RTX binding): 104%
Ki [2, 4]: 23.1 nM

CCC=CCCCN(C)c1ccc(C(=O)Nc2cnc3ccccc3c2)cc1 [4-(Hept-4-enyl-methyl-amino)-N-quinolin-3-yl-benzamide]
IC50 [1, 5]: 46 nM
IC50 [1, 3]: 1900 nM
inhibition at 1 µM ([2]; 3H-RTX binding): 104%
Ki [2, 4]: 29.8 nM

CCCCN(C)c1ccc(C(=O)Nc2cnc3ccccc3c2)cc1 [4-(Methyl-butyl-amino)-N-quinolin-3-yl-benzamide]
IC50 [1, 5]: 100 nM
IC50 [1, 3]: 786 nM
inhibition at 1 µM ([2]; 3H-RTX binding): 97%
Ki [2, 4]: 83.3 nM

CCC=CCCCCCN(C)c1ccc(C(=O)Nc2cnc3ccccc3c2)cc1 [4-(Methyl-non-6-enyl-amino)-N-quinolin-3-yl-benzamide]
IC50 [1, 5]: 48 nM
inhibition at 1 µM ([2]; 3H-RTX binding): 101%
Ki [2, 4]: 36.5 nM

CCCCCCCCN(C)c1ccc(C(=O)Nc2cnc3ccccc3c2)cc1 [4-(Octyl-methyl-amino)-N-quinolin-3-yl-benzamide]
IC50 ([1]; read-out: FLIPR functional assay IC50 hVR1 60 min, 60 min): 190 nM
inhibition at 1 µM ([2]; 3H-RTX binding): 105%
Ki [2, 4]: 14.7 nM

CCCN(CCc1ccccc1)c1ccc(C(=O)Nc2cnc3ccccc3c2)cc1 [4-(Phenethyl-propyl-amino)-N-quinolin-3-yl-benzamide]
IC50 [1, 5]: 360 nM
inhibition at 1 µM ([2]; 3H-RTX binding): 105%
Ki [2, 4]: 71.6 nM

O=C(Nc1cnc2ccccc2c1)c1ccc(N2CCCCCCC2)cc1 [4-Azocan-1-yl-N-quinolin-3-yl-benzamide]
IC50 [1, 3]: 290 nM
Ki [2, 4]: 18.5 nM

O=C(Nc1cnc2ccccc2c1)c1ccc(N2CCCCCCCC2)cc1 [4-Azonan-1-yl-N-quinolin-3-yl-benzamide]
IC50 [1, 3]: 92 nM
Ki [2, 4]: 11.8 nM
